{
  "source": "ChEMBL document CHEMBL1159203",
  "about": "“Agelastatins C and D, new pentacyclic bromopyrroles from the sponge Cymbastela sp., and potent arthropod toxicity of (-)-agelastatin A” (J Nat Prod, 1998)",
  "system": "Artemia franciscana",
  "test": "Toxicity against Artemia franciscana nauplii larvae",
  "assay_type": "organism-based",
  "conditions": "in vivo",
  "data": [
    {"molecule": "CN1C(=O)N[C@@]2(O)[C@@H]3NC(=O)c4ccc(Br)n4[C@@H]3C[C@@]12O", "values": [
      {"measurement": "LC50", "value": 220, "unit": "ppm"}
    ]}
  ]
}
